Laboratory results reported in patent US20090137580A1, “Fused Heterocyclic Derivatives and Use Thereof” (Takeda Pharmaceutical Company Limited, priority 2005, published 2009).

Experiments:
[1] = biological target: T1, VEGF Receptor 2 Kinase (VEGFR2) (Homo sapiens, UniProt P35968); test: Determination of VEGF receptor 2 kinase (VEGFR2) inhibitory activity (alpha screen); format: biochemical; conditions: VEGFR2 intracellular domain protein, 25 μM ATP buffer, read-out: inhibitory rate (kinase inhibitory rate of VEGFR2)
T1 construct: made in house; host or cells: SF-21 insect cells, recombinant baculovirus BAC-VEGFR2 (pFASTBAC1)
T1 sequence (P35968 786-1356 limits assumed): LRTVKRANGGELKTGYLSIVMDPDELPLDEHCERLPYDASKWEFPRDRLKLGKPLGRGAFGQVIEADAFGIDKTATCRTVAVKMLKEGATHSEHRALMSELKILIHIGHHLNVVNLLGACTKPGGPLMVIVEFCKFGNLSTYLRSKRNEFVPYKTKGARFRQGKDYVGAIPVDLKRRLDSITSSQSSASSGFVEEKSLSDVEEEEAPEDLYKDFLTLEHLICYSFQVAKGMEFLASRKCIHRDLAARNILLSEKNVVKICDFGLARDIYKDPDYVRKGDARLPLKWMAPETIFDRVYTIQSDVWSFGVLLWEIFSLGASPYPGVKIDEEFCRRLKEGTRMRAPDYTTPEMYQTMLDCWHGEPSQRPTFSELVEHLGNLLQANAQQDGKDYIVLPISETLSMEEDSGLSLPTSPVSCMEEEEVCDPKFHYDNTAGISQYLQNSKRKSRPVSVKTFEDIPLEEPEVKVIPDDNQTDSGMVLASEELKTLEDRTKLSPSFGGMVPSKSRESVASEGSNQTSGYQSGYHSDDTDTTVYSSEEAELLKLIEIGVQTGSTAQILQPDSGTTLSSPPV
Protocol: For cloning of human VEGF receptor 2 (hereinafter to be abbreviated as VEGFR2) gene, PCR was performed using cDNA Libraries Human Placenta (Clontech) as a template. The primer used for PCR was prepared by, based on the information of the base sequence (Genbank Accession AF035121) of VEGFR2 gene, adding a base sequence encoding the flag peptide and a restriction enzyme recognition sequence to the base sequence (2671-4374 of Genbank Accession AF035121) encoding the VEGFR2 intracellular domain, so that a flag tag would be added to the N terminal of the protein. The primer base sequence is shown in the following.
PCR reaction was carried out using a KOD-plus kit (TOYOBO). The obtained PCR product was electrophoresed on an agarose gel (1%), and a DNA fragment amplified by PCR was recovered from the gel and digested with restriction enzymes Sal I and Sph I. The DNA after the restriction enzyme treatment was electrophoresed on an agarose gel (1%), and the obtained DNA fragment was recovered and ligated to the plasmid pFASTBAC1 (Invitrogen) digested with restriction enzymes Sal I and Sph I to give an expression plasmid pFB-VEGFR2. The base sequence of the inserted fragment was confirmed to have matched with the base sequence (2671-4374 of Genbank Accession AF035121) of the VEGFR2 intracellular domain. Furthermore, virus stock BAC-VEGFR2 of the recombinant Baculovirus was prepared using BAC-TO-BAC Baculovirus Expression System (Invitrogen).
SF-21 cells were inoculated into 1 L of Sf-900IISFM medium (Invitrogen) containing 10% fetal calf serum (trace), 50 mg/L Gentamicin (Invitrogen) and 0.1% Pluronic F-68 (Invitrogen) at 1×10^6 cells/ml, and shake culture was performed using a 2 L Erlenmeyer flask at 27° C., 100 rpm. After 24 hr of culture, recombinant Baculovirus BAC-VEGFR2 (13.4 mL) was added, and the culture was continued for 3 days. The culture medium was centrifuged at 2,000 rpm for 5 min to give virus-infected cells. The infected cells were washed with phosphate buffered saline (Invitrogen), centrifuged under the same conditions, and preserved at −80° C. The cryopreserved cells were thawed in ice, suspended in 30 mL of buffer A (Tris buffer, pH 7.4, containing 20% glycerol and 0.15M NaCl (50 mM)) supplemented with Complete Protease Inhibitor (Boehringer), and disrupted three times using a polytron homogenizer (Kinematica) at 20,000 rpm, 30 sec. The disrupt was clarified by centrifugation at 40,000 rpm, 30 min and filtered through a 0.45 μm filter. The filtrate was passed through a column packed with Anti-FLAG M2 Affinity Gel (Sigma Ltd., 4 mL) at a flow rate of about 0.5 mL/min. The column was washed with buffer A and eluted with buffer A containing 100 μg/mL FLAG peptide. The eluate was concentrated by Vivaspin 20 (Viva Science) having a fraction molecular weight of 30K. The concentrate was applied to NAP™ 25 column (Amersham Biosciences) equilibrated with buffer A for buffer exchange. The fractions containing the VEGFR2 intracellular domain protein were collected, glycerol was added to the final concentration of 50% and the fractions cryopreserved at ˜80° C.
The test compound dissolved in dimethyl sulfoxide (DMSO) was diluted with a buffer (50 mM Tris-HCl, pH 7.5, 5 mM MgCl2, 5 mM MnCl2, 2 mM dithiothreitol, 0.01% Tween-20). A buffer (10 μl) containing 50 ng/ml VEGFR2 intracellular domain protein and 250 ng/ml biotin-labeled polypeptide biotinyl-poly-Glu:Tyr (4:1) (CIS Bio International) was added to the compound solution (5 μl). A buffer (10 μl) containing 25 μM ATP was added to the obtained mixture, the mixture was allowed to react at 25° C. for 5 min. Then, 25 μl of a stop solution (100 mM EDTA·2 sodium salt, 62.5 mM HEPES buffer (pH 7.4), 250 mM NaCl, 0.1% bovine serum albumin, 10 μg/ml Streptavidin Donor beads: PerkinElmer for alpha screen assay, 10 μg/ml Anti-phosphotyrosine (P-Tyr-100) Acceptor beads: PerkinElmer for alpha screen assay) was added to quench the reaction. […]

[2] = system: Human umbilical vein endothelial cells (HUVEC); test: Vascular endothelial cell growth inhibitory test; format: cell-based; conditions: Homo sapiens, 120 h, VEGF 120 ng/mL, culture 5 days, XTT reagent
Protocol: Human umbilical vein endothelial cells (HUVEC, purchased from KURABO) were cultured in a gas incubator (37° C., CO2 5%) in a vascular endothelial cell medium (Invitrogen) containing 5% fetal calf serum and a basic fibroblast growth factor (2.5 ng/mL). To be specific, HUVEC suspended in the aforementioned vascular endothelial cell medium (Invitrogen) containing 5% fetal calf serum were seeded into a 96 well flat-bottom plate (50 μL, 3000 cells each well). After culturing overnight, various concentrations of test substance and the final concentration (120 ng/mL) of vascular endothelial growth factor (VEGF) were dissolved in a vascular endothelial cell medium (Invitrogen) containing 5% fetal calf serum and added to each well (50 μL). After culturing for 5 days, an XTT reagent (Wako Pure Chemical Industries, Ltd.) was added to each well (10 μL), and reacted in a gas incubator (37° C., CO2 5%) for 2-3 hr. The absorbance at 450 nm was measured by a microtiter plate reader, and the cell growth inhibitory activity was determined.

[3] = biological target: T2, PDGFRbeta Receptor Kinase (PDGFRbeta) (Homo sapiens, UniProt P09619); test: Determination of PDGFRbeta receptor kinase (PDGFRbeta) inhibitory activity (alpha screen); format: biochemical; conditions: PDGFRbeta intracellular domain protein, 25 μM ATP buffer; read-out: IC50 value (PDGFRbeta kinase inhibition)
T2 construct: PDGFRbeta intracellular domain protein (UPSTATE); purchased UPSTATE
T2 sequence (P09619 554-1106 limits assumed): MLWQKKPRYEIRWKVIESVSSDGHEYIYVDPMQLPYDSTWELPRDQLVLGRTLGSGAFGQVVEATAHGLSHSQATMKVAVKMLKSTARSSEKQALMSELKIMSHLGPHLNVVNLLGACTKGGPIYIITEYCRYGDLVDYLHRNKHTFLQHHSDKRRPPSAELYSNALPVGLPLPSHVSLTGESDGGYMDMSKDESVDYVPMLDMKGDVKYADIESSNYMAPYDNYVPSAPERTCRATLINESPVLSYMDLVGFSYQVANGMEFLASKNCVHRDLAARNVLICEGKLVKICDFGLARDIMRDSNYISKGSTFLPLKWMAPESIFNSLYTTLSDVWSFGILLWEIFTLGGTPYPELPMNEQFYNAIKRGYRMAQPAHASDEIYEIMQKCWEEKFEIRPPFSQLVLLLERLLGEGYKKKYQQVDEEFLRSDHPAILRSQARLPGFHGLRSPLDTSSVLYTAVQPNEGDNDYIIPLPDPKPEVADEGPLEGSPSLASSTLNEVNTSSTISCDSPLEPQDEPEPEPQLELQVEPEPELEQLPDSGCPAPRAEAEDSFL
Protocol: (§1) The test compound dissolved in dimethyl sulfoxide (DMSO) was diluted with a buffer (50 mM Tris-HCl, pH 7.5, 5 mM MgCl2, 5 mM MnCl2, 2 mM dithiothreitol, 0.01% Tween-20). A buffer (10 μl) containing 125 ng/ml PDGFRbeta intracellular domain protein (UPSTATE) and 250 ng/ml biotin-labeled polypeptide biotinyl-poly-Glu:Tyr (4:1) (CIS Bio International) was added to the compound solution (5 μl). At 5 min after mixing a kinase enzyme, the compound and a biotin-labeled polypeptide, a buffer (10 μl) containing 25 μM ATP was added to the obtained mixture, the mixture was allowed to react at 25° C. for 30 min. Then, 25 μl of a stop solution (100 mM EDTA·2 sodium salt, 62.5 mM HEPES buffer (pH 7.4), 250 mM NaCl, 0.1% bovine serum albumin, 10 μg/ml Streptavidin Donor beads: PerkinElmer for alpha screen assay, 10 μg/ml Anti-phosphotyrosine (P-Tyr-66) Acceptor beads: PerkinElmer for alpha screen assay) was added to quench the reaction. The reaction solution was stood at 25° C. for 16 hr, and the count was measured using a plate reader·Fusion™ (manufactured by PerkinElmer). The kinase inhibitory rate (%) of the test compound was calculated by the following formula.
(§2) Inhibitory rate(%)=(1−(count of test compound−blank)÷(control−blank))×100
(§3) wherein the count of the solution reacted without addition of the compound is “control” and the count of the solution without addition of the compound and ATP is “blank”.

[4] = biological target: T3, PDGFR Alpha Receptor Kinase (PDGFRalpha) (Homo sapiens, UniProt P16234); test: Determination of PDGFR alpha receptor kinase (PDGFRalpha) inhibitory activity (alpha screen); format: biochemical; conditions: PDGFRalpha intracellular domain protein, 25 μM ATP buffer; read-out: IC50 value (PDGFRalpha kinase inhibition)
T3 construct: PDGFRalpha intracellular domain protein (UPSTATE); purchased UPSTATE
T3 sequence (P16234 550-1089 limits assumed): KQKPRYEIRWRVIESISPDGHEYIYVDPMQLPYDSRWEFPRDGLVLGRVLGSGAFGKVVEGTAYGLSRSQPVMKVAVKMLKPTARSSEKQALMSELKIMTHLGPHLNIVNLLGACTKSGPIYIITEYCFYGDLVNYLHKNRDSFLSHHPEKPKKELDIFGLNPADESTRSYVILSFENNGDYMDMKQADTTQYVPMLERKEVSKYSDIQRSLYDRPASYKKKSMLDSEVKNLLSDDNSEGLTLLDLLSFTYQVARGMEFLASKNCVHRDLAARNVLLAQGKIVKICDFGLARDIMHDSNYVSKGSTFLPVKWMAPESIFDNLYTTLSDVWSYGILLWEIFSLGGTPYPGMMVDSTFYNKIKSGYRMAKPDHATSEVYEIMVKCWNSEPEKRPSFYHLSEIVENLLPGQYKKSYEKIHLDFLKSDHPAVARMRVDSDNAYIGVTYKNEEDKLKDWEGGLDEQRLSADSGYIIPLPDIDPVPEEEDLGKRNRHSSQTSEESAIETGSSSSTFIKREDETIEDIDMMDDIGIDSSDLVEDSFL
Protocol: The test compound dissolved in dimethyl sulfoxide (DMSO) was diluted with a buffer (50 mM Tris-HCl, pH 7.5, 5 mM MgCl2, 5 mM MnCl2, 2 mM dithiothreitol, 0.01% Tween-20).
Acceptor beads: PerkinElmer for alpha screen assay) was added to quench the reaction. The reaction solution was stood at 25° C. for 16 hr, and the count was measured using a plate reader·Fusion™ (manufactured by PerkinElmer). The kinase inhibitory rate (%) of the test compound was calculated by the following formula.
as §2, §3

[5] = biological target: T4, TIE2 Receptor Kinase (TIE2) (Homo sapiens, UniProt Q02763); test: Determination of TIE2 receptor kinase (TIE2) inhibitory activity (alpha screen); format: biochemical; conditions: TIE2 intracellular domain protein, 5 μM ATP buffer; read-out: IC50 value (TIE2 kinase inhibition)
T4 construct: TIE2 intracellular domain protein (UPSTATE); purchased UPSTATE
T4 sequence (Q02763 770-1124 limits assumed): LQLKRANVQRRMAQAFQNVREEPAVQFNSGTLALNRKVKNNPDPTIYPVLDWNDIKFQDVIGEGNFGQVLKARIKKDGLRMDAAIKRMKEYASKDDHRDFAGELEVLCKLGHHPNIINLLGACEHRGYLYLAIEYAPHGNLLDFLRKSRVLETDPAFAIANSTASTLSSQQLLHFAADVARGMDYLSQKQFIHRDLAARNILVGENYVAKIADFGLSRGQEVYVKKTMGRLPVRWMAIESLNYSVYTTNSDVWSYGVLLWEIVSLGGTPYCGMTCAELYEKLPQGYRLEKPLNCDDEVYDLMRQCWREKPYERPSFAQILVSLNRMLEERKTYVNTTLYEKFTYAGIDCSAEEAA
Protocol: as §1, with “containing 50” for “containing 125”, “ng/ml TIE2” for “ng/ml PDGFRbeta”, “containing 5” for “containing 25”, “for 10” for “for 30”
as §2, §3
Prism (Graphpad Software) according to the nonlinear-regression sigmoidal dose-response (variable slope) analysis method.

Cc1cccc(NC(=O)Nc2ccc(Oc3ncnc4ccn(C)c34)cc2)c1 [Example 18, N-(3-methylphenyl)-N′-{4-[(5-methyl-5H-pyrrolo[3,2-d]pyrimidin-4-yl)oxy]phenyl}urea]
inhibition at 1 µM [1]: ≥ 90%
IC50 [2]: 53 nM
IC50 [3]: ≤ 500 nM
IC50 [4]: ≤ 500 nM

COc1cc(Oc2ncnc3ccn(C)c23)ccc1NC(=O)Nc1cccc(C(F)(F)F)c1 [Example 77, N-{2-methoxy-4-[(5-methyl-5H-pyrrolo[3,2-d]pyrimidin-4-yl)oxy]phenyl}-N′-[3-(trifluoromethyl)phenyl]urea]
inhibition at 1 µM [1]: ≥ 90%
IC50 [3]: ≤ 500 nM
IC50 [4]: ≤ 500 nM
IC50 [5]: ≤ 5 nM

Cn1ccc2ncnc(Oc3ccc(NC(=O)Nc4cccc(Cl)c4)cc3)c21 [Example 4, N-(3-chlorophenyl)-N′-{4-[(5-methyl-5H-pyrrolo[3,2-d]pyrimidin-4-yl)oxy]phenyl}urea]
inhibition at 1 µM [1]: ≥ 90%
IC50 [2]: 91 nM
IC50 [3]: ≤ 500 nM
IC50 [4]: ≤ 500 nM
